Test results taken from US10023613B2, “Peptidomimetic macrocycles as modulators of MCL-1” (AILERON Therapeutics, Inc., priority 2015, dated 2018).
Bridge positions count the residues as written; N and C are the ends. Square brackets hold non-standard residues; d marks the D form. Peptide text beside a SMILES is read from it. R8 = C=CCCCCCC[C@@](C)(N)C(=O)O; S5 = C=CCCC[C@](C)(N)C(=O)O

System: Human Raji cells
Assay type: cell-based
Conditions: Raji Cell Viability, 48 h, 5% serum
Description: BIM peptidomimetic macrocycles were tested for cell killing at various concentrations. Human Raji cells were treated with increasing doses of peptidomimetic macrocycles corresponding to SEQ ID NO. 763 (FIGS. 1 and 2), 1143 (FIGS. 1-3), and 1621 (FIGS. 3 and 4). An % Viable cells was calculated for each dose of the peptidomimetic macrocycle from a non-linear fit of response vs dose (GraphPad Prism). […]

Structure (SMILES): CC[C@H](C)[C@H](NC(C)=O)C(=O)N[C@@H](Cc1c[nH]c2ccccc12)C(=O)N[C@H](C(=O)N[C@@H](C)C(=O)N[C@@H](CCC(N)=O)C(=O)N[C@@H](C)C(=O)N[C@@H](CC(C)C)C(=O)N[C@@H](CCCNC(=N)N)C(=O)N[C@]1(C)CCCCCCC=CCCC[C@@](C)(C(=O)N[C@@H](Cc2ccc(O)cc2)C(=O)N[C@@H](Cc2ccc(O)cc2)C(=O)N[C@@H](C)C(N)=O)NC(=O)[C@H](CC(N)=O)NC(=O)[C@H](Cc2ccccc2)NC(=O)[C@H](CCC(=O)O)NC(=O)[C@H](CC(=O)O)NC(=O)CNC(=O)[C@H]([C@@H](C)CC)NC1=O)[C@@H](C)CC [compound 1647] (Ac-IWIAQALR[R8]IGDEFN[S5]YYA-NH2; staple 9-16)
- EC50: > 40 µM
